What was measured:
[1] = target: T1, 26S proteasome (Homo sapiens, UniProt P28074); test: 26S proteasome ChT‐L activity in cell lysates (fluorimetric); type: cell-based; settings: cellular lysates, 24‐h exposure; versus untreated cells
T1 construct: ChT‐L activity of the 26S proteasome measured in control and transfected SH‐SY5Y cells; endogenous in cells; host or cells: SH-SY5Y (control, APPwt- and APPmut-transfected)
T1 sequence (P28074 60-263): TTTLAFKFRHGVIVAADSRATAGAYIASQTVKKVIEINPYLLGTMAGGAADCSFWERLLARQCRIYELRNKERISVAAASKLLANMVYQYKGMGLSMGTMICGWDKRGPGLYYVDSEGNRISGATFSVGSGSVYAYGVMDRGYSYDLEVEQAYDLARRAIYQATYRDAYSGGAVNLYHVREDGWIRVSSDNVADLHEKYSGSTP
Method: (§1) Cell viability was evaluated with the 3‐(4,5‐dimethylthiazol‐2‐yl)‐2,5‐diphenyltetrazolium bromide assay (MTT).^[ [25] ^] Upon 6 h and 24 h treatment with increasing concentrations (0‐10 µM) of C1, C2, and C3 dissolved in DMSO, cells were washed in PBS, pH 7.5, and then MTT (final concentration 0.5 mg mL^−1) was added to the culture medium without FBS and incubated for 2 h at 37 °C. The medium was then removed and replaced with 100 µL of DMSO. The optical density was measured at 550 nm in a microtiter plate reader. At least six cultures were utilized for each time point. […] Protein concentration was determined by the method of Bradford using bovine serum albumin (BSA) as standard.^[ [26] ^]
(§2) The effects on the proteasome system were evaluated through fluorimetric assays, as previously reported,^[ [27] ^] using the following synthetic substrates: Leu‐Leu‐Val‐Tyr‐AMC for ChT‐L, Leu‐Ser‐Thr‐Arg‐AMC for T‐L, Leu‐Leu‐Glu‐AMC for PGPH, and Gly‐Pro‐Ala‐Leu‐Ala‐AMC for BrAAP, whose test is performed with the addition of the aminopeptidase‐N (AP‐N). […] Incubation was performed at 37 °C, and after 60 min, the fluorescence of the hydrolyzed 7‐amino‐4‐methyl‐coumarin (AMC) was recorded (AMC, λexc = 365 nm, λem = 449 nm) on a SpectraMax Gemini XPS microplate reader. […] The fluorescence values of lysates were subtracted of the values of control assays in the presence of the two inhibitors.

[2] = target: T2, 20S proteasome (Homo sapiens, UniProt P28072+P28074+Q99436); test: 20S proteasome activity in cell lysates (fluorimetric); type: cell-based; settings: cellular lysates, 1 and 5 µM, 6 and 24 h
T2 construct: The incubation mixture contained 1 µg of cell lysate, the appropriate substrate; endogenous in cells; host or cells: SH-SY5Y (control, APPwt- and APPmut-transfected); only APP is transfected, the proteasome is endogenous
T2 sequence (P28074 60-263): T1 sequence (P28074 60-263)
T2 sequence (Q99436 44-277): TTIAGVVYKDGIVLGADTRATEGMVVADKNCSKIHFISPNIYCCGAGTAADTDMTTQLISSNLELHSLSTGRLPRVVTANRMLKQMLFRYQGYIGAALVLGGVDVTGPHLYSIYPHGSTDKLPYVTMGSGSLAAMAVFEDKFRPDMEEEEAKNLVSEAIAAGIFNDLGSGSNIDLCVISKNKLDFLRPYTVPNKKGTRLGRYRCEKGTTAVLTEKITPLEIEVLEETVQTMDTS
T2 sequence (P28072 1-239): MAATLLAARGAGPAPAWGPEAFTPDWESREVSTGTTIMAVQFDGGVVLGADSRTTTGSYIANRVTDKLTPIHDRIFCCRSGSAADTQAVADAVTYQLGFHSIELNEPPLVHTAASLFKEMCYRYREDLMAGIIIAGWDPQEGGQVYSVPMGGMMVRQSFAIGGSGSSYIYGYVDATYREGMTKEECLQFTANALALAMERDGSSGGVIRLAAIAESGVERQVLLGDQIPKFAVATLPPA
Method: as §1, §2

[3] = test system: SH‐SY5Y control and transfected cells; test: MTT cell viability assay; type: cell-based, human; settings: 24 h exposure, 10 µM, data not shown
Method: Cell viability was evaluated with the 3‐(4,5‐dimethylthiazol‐2‐yl)‐2,5‐diphenyltetrazolium bromide assay (MTT).^[ [25] ^] Upon 6 h and 24 h treatment with increasing concentrations (0‐10 µM) of C1, C2, and C3 dissolved in DMSO, cells were washed in PBS, pH 7.5, and then MTT (final concentration 0.5 mg mL^−1) was added to the culture medium without FBS and incubated for 2 h at 37 °C. The medium was then removed and replaced with 100 µL of DMSO. The optical density was measured at 550 nm in a microtiter plate reader. At least six cultures were utilized for each time point. Neuroblastoma cells, control and transfected cells, were then treated with C1, C2, and C3 for 6 and 24 h at the concentrations 0–1–5 µM. Compounds were dissolved in DMSO and then added to cell culture media. Control cells were included in each time point. After removing the medium and washing with cold phosphate buffered saline (PBS), cells were harvested in 4 mL of PBS and centrifuged at 1600 × g for 5 min. The pellet was resuspended in lysis buffer (20 mM Tris, pH 7.4, 250 mM sucrose, 1 mM EDTA, and 5 mM β‐mercaptoethanol) and passed through a 29‐gauge needle at least ten times. Lysates were centrifuged at 12 000×g for 15 min and the supernatants were stored at ‐80°C until use. Protein concentration was determined by the method of Bradford using bovine serum albumin (BSA) as standard.^[ [26] ^]

Compound	ChT‐L residual activity, 26S proteasome [1]	proteasome inhibition, comparison among the three tested compounds [2]	number of APPmut viable cells (MTT) [3]
O=C1CCC(Cc2ccc(O)cc2)O1 (stereo not shown) [Compound C1, 5‐(4ʹ‐hydroxyphenyl)‐γ‐valerolactone]	30%		
O=C1CCC(Cc2ccc(O)c(O)c2)O1 (stereo not shown) [Compound C2, 5‐(3ʹ,4ʹ‐dihydroxyphenyl)‐γ‐valerolactone]		the least efficient	minor reduction
O=C1CCC(Cc2ccc(OS(=O)(=O)O)c(O)c2)O1 (stereo not shown) [Compound C3, 5‐(3ʹ‐hydroxyphenyl)‐γ‐valerolactone‐4ʹ‐sulfate]	60%		

— article PMC9285603, “Flavan‐3‐ol Microbial Metabolites Modulate Proteolysis in Neuronal Cells Reducing Amyloid‐beta (1‐42) Levels” (Molecular Nutrition & Food Research, 2021)
